Results on eleven compounds are retold here after patent US10160726B2, “Quinolone derivatives as antibacterials” (priority 2014, dated 2018).

≈ marks a conversion by molar mass, not a printed value. Structures can show the parent of a compound that is named as a salt. Where two headings read alike, the source gives them in different places. Where only a bound is given, the exact number is not on record here.

Assay [1] addresses E. coli DNA gyrase (GyrA-B) (Escherichia coli, UniProt P0AES4). The assay is described as follows: Supercoiling assay of E. coli gyrase. The format is biochemical. The method, then:
Method 1: Supercoiling Assay of E. Coli Gyrase
Enzymatic activity of E. coli DNA gyrase reconstituted from its purified subunits was assessed by monitoring the introduction of supercoils into the relaxed plasmid pHOT-1 (TopoGEN, TG2035-3). To form the functional gyrase A2B2 heterotetrameric enzyme, equal molar concentrations of the GyrA and GyrB subunits were combined at high protein concentration (500 nM) and incubated on ice for 1 hour prior to assay start in reaction buffer without ATP or the pHOT-1 plasmid. The reaction mixture (25 μl) contained 10 nM enzyme, 10 ng/μl pHOT-1, 1 mM ATP, 35 mM Tris-HCl pH 7.5, 24 mM KCl, 4 mM MgCl2, 2 mM DTT, 1.8 mM spermidine, 6.5% glycerol, and 100 μg/ml bovine serum albumin. The reaction was carried out at 37° C. for 90 minutes and terminated by the addition of 2.5 μl of 10× stop solution (0.9% SDS, 50% glycerol, 0.05% bromophenol blue). […] Gels were stained with ethidium bromide (0.5 μg/ml) for 30 minutes and destained in water for 20 minutes. All gels were analyzed using the BIO-RAD ChemiDocTm XRS+ with Image Lab 3.0 software. The 50% inhibition concentration (IC50) was determined as being the compound concentration at which the supercoiled band was reduced by 50% from the DMSO drug free control (Microsoft Excel 2010 IDBS XLfit, GraftPad Prism 6).

Assay [2] deals with E. coli DNA topoisomerase IV (Topo IV, ParC-E) (Escherichia coli, UniProt P0AFI2). Description: Decatenation assay of E. coli Topo IV. The format is biochemical. Here is the method: Method 2: Decatenation Assay of E. Coli Topo IV
Chain of E. coli DNA topoisomerase IV (Topo IV, ParC-E) (P0AFI2 whole entry): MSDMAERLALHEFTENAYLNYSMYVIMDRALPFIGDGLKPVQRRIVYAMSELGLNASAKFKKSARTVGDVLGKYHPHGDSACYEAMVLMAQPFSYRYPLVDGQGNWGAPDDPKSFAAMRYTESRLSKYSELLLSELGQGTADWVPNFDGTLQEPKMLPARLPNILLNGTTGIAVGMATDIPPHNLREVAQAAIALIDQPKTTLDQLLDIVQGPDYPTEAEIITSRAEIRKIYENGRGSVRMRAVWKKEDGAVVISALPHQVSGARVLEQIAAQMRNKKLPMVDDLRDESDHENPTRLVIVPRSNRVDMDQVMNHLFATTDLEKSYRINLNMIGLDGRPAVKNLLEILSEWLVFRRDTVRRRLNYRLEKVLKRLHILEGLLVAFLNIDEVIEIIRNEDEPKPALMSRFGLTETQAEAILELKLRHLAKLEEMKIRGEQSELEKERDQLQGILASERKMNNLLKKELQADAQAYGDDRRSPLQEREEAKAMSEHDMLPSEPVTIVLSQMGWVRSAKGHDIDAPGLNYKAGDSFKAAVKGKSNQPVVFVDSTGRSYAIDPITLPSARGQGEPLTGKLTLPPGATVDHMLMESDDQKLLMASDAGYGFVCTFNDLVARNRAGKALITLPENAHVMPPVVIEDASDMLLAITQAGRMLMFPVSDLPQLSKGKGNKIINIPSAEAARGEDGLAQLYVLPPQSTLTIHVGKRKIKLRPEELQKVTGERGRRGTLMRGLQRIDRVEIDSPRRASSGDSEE
Chain of E. coli DNA topoisomerase IV (Topo IV, ParC-E) (P20083 whole entry, further chain): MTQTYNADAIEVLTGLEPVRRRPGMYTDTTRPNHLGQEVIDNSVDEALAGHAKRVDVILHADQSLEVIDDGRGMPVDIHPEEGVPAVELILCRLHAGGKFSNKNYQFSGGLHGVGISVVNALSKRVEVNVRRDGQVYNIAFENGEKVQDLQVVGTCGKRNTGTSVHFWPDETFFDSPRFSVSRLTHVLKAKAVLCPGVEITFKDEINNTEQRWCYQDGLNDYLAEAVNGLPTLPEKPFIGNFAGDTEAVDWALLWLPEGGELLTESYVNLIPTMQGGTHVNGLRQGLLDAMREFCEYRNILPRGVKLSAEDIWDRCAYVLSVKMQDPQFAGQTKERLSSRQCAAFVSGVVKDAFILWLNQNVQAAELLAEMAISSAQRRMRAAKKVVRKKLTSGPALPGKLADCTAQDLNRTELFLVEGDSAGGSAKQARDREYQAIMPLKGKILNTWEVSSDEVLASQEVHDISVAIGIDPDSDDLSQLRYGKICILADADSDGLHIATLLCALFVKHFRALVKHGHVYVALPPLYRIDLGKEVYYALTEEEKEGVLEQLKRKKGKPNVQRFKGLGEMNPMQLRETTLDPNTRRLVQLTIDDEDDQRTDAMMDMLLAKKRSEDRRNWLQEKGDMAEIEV
Enzymatic activity of the E. coli DNA topoisomerase IV (Topo IV) reconstituted from its purified subunits was monitored by the decatenation of kinetoplast DNA into minicircles (kDNA, TopoGEN, TG2013-3). To form the functional Topo IV C2E2 heterotetrameric enzyme, equal molar concentrations of the ParC and ParE subunits were combined at high protein concentration (500 nM) and incubated on ice for 1 hour prior to assay start in reaction buffer without ATP or the kDNA. […] The reaction was carried out at 37° C. for 2 hours and terminated by the addition of 2.5 μl of 10× stop solution (0.9% SDS, 50% glycerol, 0.05% bromophenol blue). […] Gels were stained with ethidium bromide (0.5 μg/ml) for 30 minutes and distained in water for 20 minutes. All gels were analyzed using the BIO-RAD ChemiDoc™ XRS^+ with Image Lab 3.0 software. The 50% inhibitor concentration (IC50) was determined as being the compound concentration at which the presence of the kDNA minicircles in the gel was reduced by 50% from the DMSO drug free control (Microsoft Excel 2010 IDBS XLfit, Graph Pad Prism 6).

The test system of assay [3] is E. coli ATCC 25922 (NB27001). The assay is described as follows: MIC, broth microdilution (CLSI). The format is cell-based. Particulars: Escherichia coli, ATCC25922; E. coli ATCC 25922; 35° C., 20 hours; read-out: Antibacterial activity (MIC) NB27001. A general note: Dilution methods test growth across graded concentrations, often in twofold steps.
Assay [4] deals with E. coli NB27177 (efflux deficient CGSC 11430, ΔtolC732::kan). The assay is described as follows: microbe, parasite or virus in culture. The following applies: Escherichia coli, 20 h, read-out: Antibacterial activity (MIC) NB27177. The format is cell-based.
Assay [5] relates to P. aeruginosa NB52019 (wild-type PAO1). Description: MIC, broth microdilution (CLSI). The format is cell-based. Particulars: Pseudomonas aeruginosa, read-out: Antibacterial activity (MIC) NB52019.
Assay [6] relates to P. aeruginosa NB52023 (efflux deficient K1542, ΔmexX ΔmexB). The assay is described as follows: microbe, parasite or virus in culture. It is filed as cell-based. Particulars: Pseudomonas aeruginosa, 20 h, read-out: Antibacterial activity (MIC) NB52023.
The test system of assay [7] is P. aeruginosa NB52023-CDK0006 (gyrA T83I, parC S87L). The assay is described as follows: microbe, parasite or virus in culture. Particulars: Pseudomonas aeruginosa, 20 h, read-out: Antibacterial activity (MIC) NB52023-CDK0006. It is filed as cell-based.
Assay [8] deals with S. aureus ATCC 29213 (NB01001). Description: MIC, broth microdilution (CLSI). It is filed as cell-based. Particulars: Staphylococcus aureus, ATCC29213; S. aureus ATCC 29213; 35° C., 20 hours; read-out: Antibacterial activity (MIC) NB01001.
For assay [9], the system named is S. aureus NB01006-AVR005 (gyrA S84L, grlA S80F, grlB E471K). Description: microbe, parasite or virus in culture. It is filed as cell-based. The following applies: Staphylococcus aureus, 20 h, read-out: Antibacterial activity (MIC) NB01006-AVR005.
[10] abbreviates: supercoiling activity of E. coli gyrase (GyrA-B), read-out: GyrA-B IC50 (Enzyme).
Setting [11] is: decatenation activity of E. coli topoIV (ParC-E), read-out: ParC-E IC50 (Enzyme).
The mark [12] stands for this setting: P. aeruginosa wild-type PAO1, 35° C., 20 hours.

The IC50 is the point on the concentration scale where inhibition reaches its midpoint.

Chain of E. coli DNA gyrase (GyrA-B) (P0AES4 whole entry): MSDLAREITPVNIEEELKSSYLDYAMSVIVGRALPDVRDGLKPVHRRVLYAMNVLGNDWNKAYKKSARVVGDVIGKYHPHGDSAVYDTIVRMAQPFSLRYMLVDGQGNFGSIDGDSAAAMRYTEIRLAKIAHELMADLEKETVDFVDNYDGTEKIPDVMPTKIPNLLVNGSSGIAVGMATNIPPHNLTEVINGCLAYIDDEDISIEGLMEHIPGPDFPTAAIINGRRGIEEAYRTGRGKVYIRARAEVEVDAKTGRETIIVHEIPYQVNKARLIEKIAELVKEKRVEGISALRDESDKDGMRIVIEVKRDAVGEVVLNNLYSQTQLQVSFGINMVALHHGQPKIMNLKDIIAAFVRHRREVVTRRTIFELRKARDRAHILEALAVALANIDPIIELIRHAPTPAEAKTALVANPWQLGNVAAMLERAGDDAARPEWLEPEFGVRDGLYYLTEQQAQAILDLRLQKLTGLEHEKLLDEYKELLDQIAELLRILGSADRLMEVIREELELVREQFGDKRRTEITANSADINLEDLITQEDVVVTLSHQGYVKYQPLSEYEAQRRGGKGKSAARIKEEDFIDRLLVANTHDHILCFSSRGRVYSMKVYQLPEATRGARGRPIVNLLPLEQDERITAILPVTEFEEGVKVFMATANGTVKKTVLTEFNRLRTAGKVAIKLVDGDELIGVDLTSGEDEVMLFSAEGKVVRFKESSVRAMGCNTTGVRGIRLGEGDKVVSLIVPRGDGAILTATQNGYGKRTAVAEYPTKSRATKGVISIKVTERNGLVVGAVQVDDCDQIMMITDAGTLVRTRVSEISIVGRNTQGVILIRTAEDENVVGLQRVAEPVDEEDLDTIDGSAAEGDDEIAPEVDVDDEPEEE

Turning to `Cc1c(N2CC[C@@H]([C@H](C)N)C2)c(F)cc2c(C(N)=O)cc(=O)n(C3CC3)c12` [Example 34, 7-((R)-3-((S)-1-aminoethyl)pyrrolidin-1-yl)-1-cyclopropyl-6-fluoro-8-methyl-2-oxo-1,2-dihydroquinoline-4-carboxamide], the IC50 was 440 nM in [1] (setting [10]) and 5140 nM in assay [2] (setting [11]). In addition, the MIC in assay [3] was 32 µg/mL (≈ 85.9 µM); in assay [4], 2 µg/mL (≈ 5.37 µM); in assay [5] (PAO1, 20 h), more than 32 µg/mL; in assay [6], 16 µg/mL (≈ 43 µM); in assay [7], 16 µg/mL (≈ 43 µM); in assay [8] it was 4 µg/mL (≈ 10.7 µM). Further, the MIC in assay [9] is 4 µg/mL (≈ 10.7 µM).
Take `Cc1c(N2CC[C@@H]([C@H](C)N)C2)c(F)cc2ccc(=O)n(C3CC3)c12.Cl` [Example 9.1, 7-((R)-3-((S)-1-aminoethyl)pyrrolidin-1-yl)-1-cyclopropyl-6-fluoro-8-methylquinolin-2(1H)-one hydrochloride salt]: the results for the IC50 in assay [1] and in assay [2] were 1300 nM and 9910 nM, respectively. The MIC in [3] is 1 µg/mL; in assay [4], less than 0.03 µg/mL; in [5] (setting [12]), 16 µg/mL; in assay [6], 4 µg/mL; in [7], 8 µg/mL; in assay [8] it was 0.06 µg/mL. In addition, the MIC in assay [9] came out at 0.06 µg/mL.
`Cc1c(N2CC[C@@H]([C@H](C)N)C2)c(F)cc2c(C(=O)NO)cc(=O)n(C3CC3)c12` [Example 43, 7-((R)-3-((S)-1-aminoethyl)pyrrolidin-1-yl)-1-cyclopropyl-6-fluoro-N-hydroxy-8-methyl-2-oxo-1,2-dihydroquinoline-4-carboxamide]: the IC50 in assay [1] (setting [10]) worked out at 560 nM; in [2] (setting [11]), 3350 nM. The MIC in assay [3] is 32 µg/mL (≈ 82.4 µM); in [4], 4 µg/mL (≈ 10.3 µM); in [5] (PAO1, 20 h), more than 32 µg/mL; in assay [6] it was more than 32 µg/mL; in assay [7], more than 32 µg/mL; in [8], 8 µg/mL (≈ 20.6 µM). The MIC in assay [9] is 16 µg/mL (≈ 41.2 µM).
For `Cc1c(N2CC[C@H](N)C2)c(F)cc2c(C#N)cc(=O)n(C3CC3)c12` [Example 30, (S)-7-(3-aminopyrrolidin-1-yl)-1-cyclopropyl-6-fluoro-8-methyl-2-oxo-1,2-dihydroquinoline-4-carbonitrile], the half-maximal inhibitory concentration (IC50) in assay [1] (setting [10]) came out at 980 nM; in assay [2] (setting [11]) it was 14600 nM. Moreover, the MIC in [3] was 1 µg/mL (≈ 3.06 µM); in assay [4], less than 0.03 µg/mL; in assay [5] (PAO1, 20 h), 8 µg/mL (≈ 24.5 µM); in assay [6], 1 µg/mL (≈ 3.06 µM); in assay [7] it was 4 µg/mL (≈ 12.3 µM); in assay [8] it was 0.5 µg/mL (≈ 1.53 µM). Further, the MIC in assay [9] worked out at 0.5 µg/mL (≈ 1.53 µM).
`Cc1c(N2CC[C@@H]([C@H](C)N)C2)ccc2c(OCCN(C)C)cc(=O)n(C3CC3)c12` [Example 74, 7-((R)-3-((S)-1-aminoethyl)pyrrolidin-1-yl)-1-cyclopropyl-4-(2-(dimethylamino)ethoxy)-8-methylquinolin-2(1H)-one TFA salt]: the concentration for half-maximal inhibition (IC50) was 310 nM in assay [1] (setting [10]) and 240 nM in assay [2] (setting [11]). Also, the MIC is 8 µg/mL in assay [3]; 0.25 µg/mL in [4]; 32 µg/mL in [5] (PAO1, 20 h); 8 µg/mL in [6]; 16 µg/mL in assay [7]; 1 µg/mL in assay [8]. For the same compound, the MIC in [9] came out at 2 µg/mL.
For `Cc1c(N2CC[C@@H]([C@H](C)N)C2)c(F)cc2c(CN)cc(=O)n(C3CC3)c12` [Example 45, 7-((R)-3-((S)-1-aminoethyl)pyrrolidin-1-yl)-4-(aminomethyl)-1-cyclopropyl-6-fluoro-8-methylquinolin-2(1H)-one], the concentration for half-maximal inhibition (IC50) in [1] (setting [10]) was less than 100 nM; in [2] (setting [11]) it was 240 nM. Also, the MIC in assay [3] was found to be 1 µg/mL (≈ 2.79 µM); in assay [4], 0.06 µg/mL (≈ 0.167 µM); in [5] (PAO1, 20 h), 2 µg/mL (≈ 5.58 µM); in [6] it was 0.5 µg/mL (≈ 1.39 µM); in assay [7] it was 2 µg/mL (≈ 5.58 µM); in [8] it was 0.25 µg/mL (≈ 0.697 µM). The MIC in [9] was 0.5 µg/mL (≈ 1.39 µM).
Consider `Cc1c(N2CC[C@@H]([C@H](C)N)C2)c(F)cc2c(C#N)cc(=O)n(C3CC3)c12` [Example 27, 7-((R)-3-((S)-1-aminoethyl)pyrrolidin-1-yl)-1-cyclopropyl-6-fluoro-8-methyl-2-oxo-1,2-dihydroquinoline-4-carbonitrile], for which the IC50 in assay [1] (setting [10]) was 130 nM; in assay [2] (setting [11]), 590 nM. Moreover, the MIC is 1 µg/mL (≈ 2.82 µM) in assay [3]; less than 0.03 µg/mL in assay [4]; 4 µg/mL (≈ 11.3 µM) in assay [5] (PAO1, 20 h); 1 µg/mL (≈ 2.82 µM) in [6]; 2 µg/mL (≈ 5.64 µM) in assay [7]; less than 0.03 µg/mL in [8]. Further, the MIC in assay [9] was less than 0.03 µg/mL.
In the case of `Cc1c(-c2ccc(N)nc2)c(F)cc2ccc(=O)n(C3CC3)c12` [Example 10, 7-(6-Aminopyridin-3-yl)-1-cyclopropyl-6-fluoro-8-methylquinolin-2(1H)-one], the values for the half-inhibitory concentration (IC50) in assay [1] (setting [10]) and in assay [2] (setting [11]) were 1200 nM and 1930 nM, respectively. Further, the MIC in [3] was 4 µg/mL (≈ 12.9 µM); in assay [4], less than 0.03 µg/mL; in assay [5] (PAO1, 20 h) it was more than 32 µg/mL; in [6], 4 µg/mL (≈ 12.9 µM); in assay [7] it was 8 µg/mL (≈ 25.9 µM); in assay [8], 0.25 µg/mL (≈ 0.808 µM). For the same compound, the MIC in assay [9] was found to be 0.25 µg/mL (≈ 0.808 µM).
In the case of `Cc1c(N2CC[C@@H]([C@H](C)N)C2)ccc2c(OCC3CCOCC3)cc(=O)n(C3CC3)c12` [Example 73, 7-((R)-3-((S)-1-aminoethyl)pyrrolidin-1-yl)-1-cyclopropyl-8-methyl-4-((tetrahydro-2H-pyran-4-yl)methoxy)quinolin-2(1H)-one TFA salt], the figures for the IC50 in [1] (setting [10]) and in assay [2] (setting [11]) were 3010 nM and 4970 nM, respectively. Besides, the MIC was 32 µg/mL in assay [3]; 2 µg/mL in assay [4]; more than 32 µg/mL in assay [5] (PAO1, 20 h); more than 32 µg/mL in assay [6]; more than 32 µg/mL in [7]; 1 µg/mL in assay [8]. In addition, the MIC in [9] was determined as 4 µg/mL.
`Cc1c(N2CCNCC2)c(F)cc2ccc(=O)n(C3CC3)c12` [Example 9.3, 1-Cyclopropyl-6-fluoro-8-methyl-7-(piperazin-1-yl)quinolin-2(1H)-one]: the half-inhibitory concentration (IC50) was 11900 nM in assay [1] and more than 100000 nM in [2]. The MIC was determined as 4 µg/mL (≈ 13.3 µM) in assay [3]; 0.25 µg/mL (≈ 0.83 µM) in assay [4]; 32 µg/mL (≈ 106 µM) in assay [5] (setting [12]); 16 µg/mL (≈ 53.1 µM) in assay [6]; 16 µg/mL (≈ 53.1 µM) in assay [7]; 16 µg/mL (≈ 53.1 µM) in assay [8]. For the same compound, in assay [9], the MIC was 16 µg/mL (≈ 53.1 µM).
Regarding `Cc1c(N2CC[C@@H]([C@H](C)N)C2)ccc2cc(O)c(=O)n(C3CC3)c12` [Example 79, 7-((R)-3-((S)-1-aminoethyl)pyrrolidin-1-yl)-1-cyclopropyl-3-hydroxy-8-methylquinolin-2(1H)-one TFA salt], the IC50 in assay [1] (setting [10]) stood at 2440 nM; in assay [2] (setting [11]), 1840 nM. Moreover, the MIC was 8 µg/mL in assay [3]; 1 µg/mL in assay [4]; more than 32 µg/mL in assay [5] (PAO1, 20 h); more than 32 µg/mL in [6]; more than 32 µg/mL in assay [7]; 2 µg/mL in assay [8]. In addition, the MIC in assay [9] came out at 8 µg/mL.
